We go through 1 compound from patent publication US20030203969A1, “Pharmaceutically active aromatic guanylhydrazones” (priority 2000, published 2003).

Data set [1] concerns Respiratory Syncytial Virus (Long). The class given is cell-based. How it is done:
A cytoprotection assay procedure using MTS is employed to evaluate compounds for antiviral activity against Respiratory Syncytial Virus (Long) in Vero (African green monkey, ATCC Cat. No. CCL-81) cells. The cells are pre-grown overnight at 37° C. (2×10^4/well in 96 well tissue culture plates) with 10% fetal Bovine serum containing Minimum Essential Medium. The positive control for the assay is Interferon-Gamma/Ribavirin. The infection medium contains reduced serum levels (2% FBS).
Using half log dilutions with high test starting at 100 μg/ml the drug dilutions are made and added to triplicate cultures in 0.1 ml volume and pre-titrated virus suspension is also added in 0.1 ml volume. Cell control containing medium alone, virus controls containing medium and virus, the drug toxicity controls containing medium and each drug concentrations are run simultaneously with the test samples. […] CPE inhibition is determined by dye uptake procedure (Celltiter-MTS). Celltiter reagent contains a novel tetrazolium (MTS) compound and an electron coupling reagent phenazine ethosulfate (PES). MTS-tetrazolium is bioreduced by cells into a colored formazan product that is soluble in tissue culture medium. This conversion is accomplished by NADPH or NADH produced by dehydrogenase enzymes in metabolically active cells. The amount of soluble formazan produced by cellular reduction of the MTS is measured by the absorbance at 490 nm. The quantity of formazan product as measured by the amount of 490 nm absorbance is directly proportional to the number of living cells in the culture thus allowing the rapid quantitative analysis of the inhibition of virus-induced cell killing by the test substances. […]
The inhibitory drug concentration which reduces the viral replication by 95% (IC95) and the minimum drug concentration which inhibits cell growth by 95% (TC95) are calculated by using a regression analysis program for semilog curve fitting. A therapeutic (selectivity) index (TI) for compound No. 4 is determined by dividing the TC95 by the IC95.

For a further data set, the system named is clinical HIV-1 isolates. Description: Inhibition of clinical HIV-1 isolates in PBMCs from HIV-1-infected patients. The class given is cell-based. Conditions: d14. Here is the method:
HIV replication was measured either by p24 HIV Antigen Capture Assay Kit (ELISA; HIVAG-1 Monoclonal kit BIA011; Abbott) following the manufacturer's recommendation, or by using the Quantiplex HIV-1 RNA 3.0 Assay (bDNA) system (Chiron Diagnostics). The latter assay is a signal amplification nucleic acid probe assay (employing a sandwich nucleic acid hybridization procedure) for direct quantitation of HIV RNA in human plasma. There, in brief, HIV-1 is first concentrated from plasma by centrifugation. After release of genomic HIV-1 RNA from the virions, the RNA is captured to a microwell by a set of specific, synthetic oligonucleotide capture probes. A set of target probes hybridize to both the viral RNA and the pre-amplifier probes. The capture probes, comprised of 17 individual capture extenders, and the target probes, comprised of 81 individual target extenders, bind to different regions of the pol gene of the viral RNA. The amplifier probe hybridizes to the pre-amplifier forming a branched DNA (bDNA) complex. Then, multiple copies of an alkaline phosphatase labeled probe are hybridized to this immobilized bDNA complex. Detection is achieved by incubating the entire complex with a chemoluminescent substrate. Light emission is directly proportional to the amount of HIV-1 RNA present in each sample, and results are recorded as relative light units by an appropriate analyzer.
Peripheral blood mononuclear cells (PBMCs) from HIV-1-infected patients were isolated—(after informal consent was given)—by Biocoll (Biochrom) gradient centrifugation. 1×10^6/ml PBMCs were cultured (5 ml in a six well 32-mm plate) in presence of the test drugs or in DMSO (control diluent) in RPMI 1640 medium supplemented with 10% autologous serum and 2 mM L-Glutamine at 37° C. and 5% CO2.
The culture medium was changed every 3 days during the experiments. Once a week, each culture was split 1:1 and 2×10^6 feeder-PBMCs (per well) and recombinant Interleukin 2 (IL-2) [10U/ml] (Roche) was added. Prior to addition to the cell cultures, the feeder-PBMCs, prepared from 4 healthy donors, were treated for 4 days with PHA-P and PB (2 μg/ml each per 2×10^6 cells). At day 14, viability of the PBMCs (Trypan-blue staining), cell count and virus load (p24 antigen: Innotest HIV Antigen mAb, Innogenetics N. V., Gent, Belgium, or bDNA: HIV-1 RNA 3.0 Assay, Bayer AG, Tarrytown, N.Y., USA) was determined. No significant differences in cell viability were observed (˜75-80% vital cells).
At day 14 of cultivation, the virus replicated vigorously in all untreated cultures. Numbers describe percent inhibition of HIV-1 replication as compared to control experiments.

Data set [2] concerns herpes simplex virus type 1 (strain HF). Description: HSV-1 cytopathic effect (CPE) inhibition assay in Vero cells (MTS). In kind it is cell-based. From the text:
(§1) A virus-induced cytopathic effects (CPE)-inhibition assay procedure using Promega's Cell Titer Aqueous One Solution (MTS, metabolic dye) is employed to evaluate compounds for antiviral activity against herpes simplex virus type 1 (strain HF) in Vero cells (African green monkey cells, ATCC Cat. No. CCL-81). Vero cells are pregrown in 96-well tissue culture plates using Dulbecco's Modified Eagle's Medium (DMEM) supplemented with 10% heat-inactivated fetal bovine serum (FBS), L-glutamine, penicillin, and streptomycin. To each of the replicate cell cultures is added 50 μl of the test drug solution and 50 μl of virus suspension. Cell controls containing medium alone, virus-infected controls containing medium and virus, drug cytotoxicity controls containing medium and each drug concentration, reagent controls containing culture medium only (no cells), and drug calorimetric controls containing drug and medium (no cells) are run simultaneously with the test samples. The plates are incubated at 37° C. in a humidified atmosphere containing 5% CO2 until maximum CPE is observed in the untreated virus control cultures (Day 5). CPE inhibition is determined by a dye (MTS) uptake procedure. […] The purple color of the MTS formazan is then measured spectrophotometrically at 490/650 nm. […]

Another data set relates to Vero cells. The experiment in a line: Cytotoxicity in uninfected Vero cells (HSV-1 experiments, MTS). Conditions: inhibits cell growth by 50%, read-out: TC50 (the source's name). The class given is cell-based, African green monkey.
From the text: as §1

As to `CC(=NNC(=N)N)c1cc(NC(=O)CCCCCCCCC(=O)Nc2cc(C(C)=NNC(=N)N)cc(C(C)=NNC(=N)N)c2)cc(C(C)=NNC(=N)N)c1` [Compound 4, N,N′-bis (3,5-diacetylphenyl) decane diamide tetrakis (amidinohydrazone)], the Comment entry in data set [1] (RSV, at the IC95/TC95 level) was “Active”. The IC50 in data set [1] (Vero cells newly infected with RSV) came out at 1460 nM; in data set [2] (HSV-infected Vero cells, reduces the CPE by 50%), 1560 nM. Further, in data set [1] (reduces the viral replication by 95%), the “IC95” value was 2960 nM. For the same compound, the “percent inhibition of HIV-1 replication as compared to control” value in the data set on clinical HIV-1 isolates (HIV-infected PBMCs from patient 1, 0.5 μM) amounted to 91.6%; with clinical HIV-1 isolates (HIV-infected PBMCs from patient 1, 1.0 μM), 90.7%; in the data set on clinical HIV-1 isolates (HIV-infected PBMCs from patient 2, 0.5 μM), 85.8%; in the data set with clinical HIV-1 isolates (HIV-infected PBMCs from patient 2, 1.0 μM), 97.6%; in the data set on clinical HIV-1 isolates (HIV-infected PBMCs from patient 3, 0.5 μM) it was 91%; in the data set on clinical HIV-1 isolates (HIV-infected PBMCs from patient 3, 1.0 μM) it was 90%. The Comments entry in data set [2] (HSV-1, Vero cells) was “Active”. Besides, the CC50 in the data set with Vero cells is 20600 nM.
